Target: T1, human PD-L1 / human PD-1 interaction (Homo sapiens, UniProt Q9NZQ7)
T1 construct: purchased R&D (PD-L1); ACRO Biosystems (PD-1, biotin)
Assay: ELISA of PD-1/PD-L1 interaction
Format: binding
Experimental: The activity of Compound 1.041 was assessed with an ELISA assay assessing the direct binding of recombinant PD-1 and PD-L1 proteins (FIG. 1A), a dimerization ELISA assay assessing the direct binding/dimerization of recombinant PD-L1 proteins (FIG. 1B), a cell based assay measuring the downstream signaling following the interaction of PD-1 and PD-L1 using a Luciferase reporter assay with cell lines overexpressing PD-1 and PD-L1 (FIG. 1C), and a mixed lymphocyte reaction assay measuring the functional outcome of upregulation of IFNg secretion, using allogenic primary human immune cells (FIG. 1D). Briefly, the mixed lymophocyte reaction assay was performed as follows: Dendritic cells and CD4+T Cells from unmatched donors were cultured together for 5 days in 96 well-flat bottom plates. Test compound was added as indicated at starting concentration of 1 μM with 1:4 dilutions with DMSO. Supernatants were harvested after 5 days of incubation and detection of human IFNg was performed by ELISA. […]
96 Well plates were coated with 1 μg/mL of human PD-L1 (obtained from R&D) in
PBS overnight at 4° C. The wells were then blocked with 2% BSA in PBS (WN) with 0.05% TWEEN-20 for 1 hour at 37° C. The plates were washed 3 times with PBS/0.05% TWEEN-20 and the compounds were serial diluted (1:5) in dilution medium and added to the ELISA plates. Human PD-1 and biotin 0.3μg/mL (ACRO Biosystems) were added and incubated for 1 hour at 37° C. then washed 3 times with PBS/0.05% TWEEN-20. A second block was performed with 2% BSA in PBS (WN)/0.05% TWEEN-20 for 10 min at 37° C. and was washed 3 times with PBS/0.05% TWEEN-20. Streptavidin—HRP was added for 1 hour at 37° C. then washed 3 times with PBS/0.05% TWEEN-20. TMB substrate was added and reacted for 20 min at 37° C. A stop solution (2 N aqueous H2SO4) was added. The absorbance was read at 450 nm using a micro-plate spectrophotometer.

T1 sequence (Q9NZQ7 19-239 limits assumed): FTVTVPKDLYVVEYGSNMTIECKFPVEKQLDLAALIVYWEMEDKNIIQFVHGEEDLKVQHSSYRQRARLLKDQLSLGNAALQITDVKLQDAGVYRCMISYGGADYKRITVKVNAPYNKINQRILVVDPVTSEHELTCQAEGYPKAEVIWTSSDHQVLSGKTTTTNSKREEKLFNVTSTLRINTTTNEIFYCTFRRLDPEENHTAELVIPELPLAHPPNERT

| SMILES | IC50 [nM] |
| --- | --- |
| N#Cc1cncc(COc2cc(O[C@H]3CCc4c(-c5cccc(OCCCN6CC7(CC(F)C7)C6)c5Cl)cccc43)c(Cl)cc2CN[C@@H]2CCC[C@H]2O)c1 | < 5 |
| Cc1c(OCCCN2[C@@H](C)CC[C@@H]2C)cccc1-c1cccc2c1CC[C@@H]2Oc1cc(OCc2cc(C#N)cc(C#N)c2)c(CN[C@H]2CCC(=O)NC2)cc1Cl | < 5 |
| Cc1c(OCCCN2CCCCC2)cccc1-c1cccc2c1CC[C@@H]2Oc1cc(OCc2cc(C#N)cc(C#N)c2)c(CN[C@@H]2CCCC[C@@H]2O)cc1Cl | < 5 |
| CC(=O)OC1CCN(CCCOc2cccc(-c3cccc4c3CC[C@@H]4Oc3cc(OCc4cncc(C#N)c4)c(CN[C@@H]4CCCC[C@@H]4O)cc3Cl)c2Cl)CC1 | < 5 |
| Cc1c(OCCCN2CCC(O)CC2)cccc1-c1cccc2c1CC[C@@H]2Oc1cc(OCc2cncc(C#N)c2)c(CNC2(C(=O)O)CCC2)cc1Cl | < 5 |
| N#Cc1cncc(COc2cc(O[C@H]3CCc4c(-c5cccc(OCCCN6CCC6)c5Cl)cccc43)c(Cl)cc2CNC[C@H]2CCC(=O)N2)c1 | < 5 |
| CCOC(=O)[C@](C)(CO)NCc1cc(Cl)c(O[C@H]2CCc3c(-c4cccc(OCCCN5CC(O)C5)c4Cl)cccc32)cc1OCc1cncc(C#N)c1 | < 5 |
| Cc1c(OCCCN2CC3(CC(O)C3)C2)cccc1-c1cccc2c1CC[C@@H]2Oc1cc(OCc2cc(C#N)cc(C#N)c2)c(CNC[C@H]2CCC(=O)N2)cc1Cl | < 5 |
| Cc1c(OCCCN2CCC(O)CC2)cccc1-c1cccc2c1C[C@H](F)[C@@H]2Oc1cc(OCc2cncc(C#N)c2)c(CN[C@H](C(=O)O)[C@@H](C)O)cc1Cl | < 5 |
| N#Cc1cncc(COc2cc(O[C@H]3CCc4c(-c5cccc(OCCCN6CC(O)C6)c5Cl)cccc43)c(Cl)cc2CN2CCCC3(C2)NC(=O)NC3=O)c1 (stereo partly shown) | < 5 |
| N#Cc1cncc(COc2cc(O[C@H]3CCc4c(-c5cccc(OCCCN6CCC(F)CC6)c5Cl)cccc43)c(Cl)cc2CNC[C@@H]2CCC(=O)N2)c1 | < 5 |
| N#Cc1cncc(COc2cc(O[C@H]3CCc4c(-c5cccc(OCCCN6CC7(CC(O)C7)C6)c5Cl)cccc43)c(Cl)cc2CN[C@H]2CCC[C@@H]2O)c1 | < 5 |
| Cc1c(OCCCNC[C@@H](O)CO)cccc1-c1cccc2c1CC[C@@H]2Oc1cc(OCc2cncc(C#N)c2)c(CN[C@H](C(=O)O)[C@@H](C)O)cc1Cl | < 5 |
| Cc1c(OCCCN2CCC(O)CC2)cccc1-c1cccc2c1C[C@H](F)[C@@H]2Oc1cc(OCc2cncc(C#N)c2)c(CN[C@@H]2CCCC[C@@H]2O)cc1Cl | < 5 |
| CN1CCC(COc2cccc(-c3cccc4c3CC[C@@H]4Oc3cc(OCc4cncc(C#N)c4)c(CNC[C@@H]4CCC(=O)N4)cc3Cl)c2Cl)C1 (stereo partly shown) | < 5 |
| Cc1c(OCCCN2CCC(F)CC2)cccc1-c1cccc2c1CC[C@@H]2Oc1cc(OCc2cc(C#N)cc(C#N)c2)c(CNC2CCNC(=O)C2)cc1Cl (stereo partly shown) | < 5 |
| N#Cc1cncc(COc2cc(O[C@H]3CCc4c(-c5cccc(OCCCN6CCC(F)CC6)c5Cl)cccc43)c(Cl)cc2CN[C@@H]2CCOC[C@H]2O)c1 | < 5 |
| CN1CCC(COc2cccc(-c3cccc4c3CC[C@@H]4Oc3cc(OCc4cncc(C#N)c4)c(CN[C@@H]4CCCC[C@@H]4O)cc3Cl)c2Cl)C1 (stereo partly shown) | < 5 |

| SMILES | IC50 [nM] |
| --- | --- |
| CC(CO)(NCc1cc(Cl)c(O[C@H]2CCc3c(-c4cccc(OCCCN5CC(O)C5)c4Cl)cccc32)cc1OCc1cccnc1)C(=O)O (stereo partly shown) | < 5 |
| N#Cc1cncc(COc2cc(O[C@H]3CCc4c(-c5cccc(OCCCN6CC7(C6)CC(F)(F)C7)c5Cl)cccc43)c(Cl)cc2CN[C@H]2CCC[C@H]2O)c1 | < 5 |
| Cc1c(OCCCN2CC[C@H](O)[C@H](F)C2)cccc1-c1cccc2c1CC[C@@H]2Oc1cc(OCc2cncc(C#N)c2)c(CN[C@H](C(=O)O)[C@@H](C)O)cc1Cl | < 5 |
| CCOc1cc(O[C@H]2CCc3c(-c4cccc(OCCCN5C(C)CC5C)c4C)cccc32)c(Cl)cc1CNC[C@@H]1CCC(=O)N1 (stereo partly shown) | < 5 |
| Cc1c(OCCCN2CC[C@@H](F)C2)cccc1-c1cccc2c1CC[C@@H]2Oc1cc(OCc2cncc(C#N)c2)c(CN[C@@H]2CCCC[C@@H]2O)cc1Cl | < 5 |
| CCOc1cc(O[C@H]2CCc3c(-c4cccc(OCCCN5CC(O)C5)c4C)cccc32)c(Cl)cc1CN[C@@H](CO)C(=O)O | < 5 |
| C[C@@H](O)[C@H](NCc1cc(Cl)c(O[C@H]2CCc3c(-c4cccc(OCCCN5CCC(C)(F)CC5)c4Cl)cccc32)cc1OCc1cncc(C#N)c1)C(=O)NS(C)(=O)=O | < 5 |
| Cc1c(OCCCNCC(C)(C)O)cccc1-c1cccc2c1CC[C@@H]2Oc1cc(OCc2cncc(C#N)c2)c(CNCC2CCC(=O)N2)cc1Cl (stereo partly shown) | < 5 |
| CC1(F)CCN(CCCOc2cccc(-c3cccc4c3CC[C@@H]4Oc3cc(OCc4cncc(C#N)c4)c(CN[C@H]4CCC(=O)NC4)cc3Cl)c2Cl)CC1 | 5 to 500 |
| CC1(F)CCN(CCCOc2cccc(-c3cccc4c3CC[C@@H]4Oc3cc(OCc4cncc(C#N)c4)c(CNC[C@@H]4CCC(=O)N4)cc3Cl)c2Cl)CC1 | < 5 |
| CC(CO)(NCc1cc(Cl)c(O[C@H]2CCc3c(-c4cccc(OCCCN5CCCCC5)c4Cl)cccc32)cc1OCc1cncc(C#N)c1)C(=O)O (stereo partly shown) | < 5 |
| N#Cc1cncc(COc2cc(O[C@H]3CCc4c(-c5cccc(OCCCN6CCCCC6)c5Cl)cccc43)c(Cl)cc2CN[C@@H]2CCCC[C@@H]2O)c1 | < 5 |
| Cc1c(OCCCN2CCC(O)CC2)cccc1-c1cccc2c1CC[C@@H]2Oc1cc(OCc2cncc(C#N)c2)c(CN[C@@H](CNC(=N)N)C(=O)O)cc1Cl | < 5 |
| N#Cc1cncc(COc2cc(O[C@H]3CCc4c(-c5cccc(OCCCN6CC7(CCC7)C6)c5Cl)cccc43)c(Cl)cc2CN[C@@H]2CCCC[C@@H]2O)c1 | < 5 |
| CCOc1cc(O[C@H]2CCc3c(-c4cccc(OCCCN5CCC5(C)C)c4C)cccc32)c(Cl)cc1CN(C)CC(=O)O | 5 to 500 |
| N#Cc1cncc(COc2cc(O[C@H]3CCc4c(-c5cccc(OCCCN6CC7(CC(F)C7)C6)c5Cl)cccc43)c(Cl)cc2CN[C@@H]2CCC[C@@H]2O)c1 | < 5 |
| CCOc1cc(O[C@H]2CCc3c(-c4cccc(OCCCN5CC(O)C5)c4Cl)cccc32)c(Cl)cc1CN[C@@](C)(CO)C(=O)O | < 5 |

Further lines, results first:

| IC50 [nM] | SMILES |
| --- | --- |
| < 5 | CCOc1cc(O[C@H]2CCc3c(-c4cccc(OCCCN5CC[C@@H](O)C5)c4C)cccc32)c(Cl)cc1CNC(C)(CO)CO |
| < 5 | Cc1c(OCCCN2CCC(F)CC2)cccc1-c1cccc2c1CC[C@@H]2Oc1cc(OCc2cc(C#N)cc(C#N)c2)c(CN[C@H]2CCC[C@H]2O)cc1Cl |
| < 5 | Cc1c(OCCCN2CCC(O)CC2)cccc1-c1cccc2c1CC[C@@H]2Oc1cc(OCc2cncc(C#N)c2)c(CN[C@@H](CO)C(N)=O)cc1Cl |
| < 5 | CCOc1cc(O[C@H]2CCc3c(-c4cccc(OCCCN5CCC5(C)C)c4C)cccc32)c(Cl)cc1CNCCO |
| < 5 | Cc1c(OCCCN2CCC(CO)CC2)cccc1-c1cccc2c1CC[C@@H]2Oc1cc(OCc2cncc(C#N)c2)c(CN[C@H](C(=O)O)[C@@H](C)O)cc1Cl |
| < 5 | CCOc1cc(O[C@H]2CCc3c(-c4cccc(OCCCN5CCC[C@@H]5C(C)C)c4C)cccc32)c(Cl)cc1CNC[C@@H]1CCC(=O)N1 |
| < 5 | Cc1c(OCCCN2CC[C@@H](O)C2)cccc1-c1cccc2c1CC[C@@H]2Oc1cc(OCc2cncc(C#N)c2)c(CN[C@H](C(=O)O)[C@@H](C)O)cc1Cl |
| < 5 | CC(C)(O)CNCc1cc(Cl)c(O[C@H]2CCc3c(-c4cccc(OCCCN5CC(O)C5)c4Cl)cccc32)cc1OCc1cncc(C#N)c1 |
| < 5 | C[C@@H](O)[C@H](NCc1cc(Cl)c(O[C@H]2CCc3c(-c4cccc(OCCCN5CCC(O)CC5)c4F)cccc32)cc1OCc1cncc(C#N)c1)C(=O)O |
| < 5 | CC(C)N1CCC(COc2cccc(-c3cccc4c3CC[C@@H]4Oc3cc(OCc4cncc(C#N)c4)c(CN[C@H]4CCC(=O)NC4)cc3Cl)c2Cl)C1 (stereo partly shown) |
| < 5 | CCOc1cc(O[C@H]2CCc3c(-c4cccc(OCCCN(C)C(C)(C)C)c4C)cccc32)c(Cl)cc1CNC[C@@H]1CCC(=O)N1 |
| 5 to 500 | Cc1c(OCCCN2CCC(C)(F)CC2)cccc1-c1cccc2c1CC[C@@H]2Oc1cc(OCc2cc(C#N)cc(C#N)c2)c(CN[C@@H]2CCC[C@H]2O)cc1Cl |
| < 5 | CC1(C)CC(O)CCN1CCCOc1cccc(-c2cccc3c2CC[C@@H]3Oc2cc(OCc3cncc(C#N)c3)c(CN[C@@H]3CCCC[C@@H]3O)cc2Cl)c1Cl (stereo partly shown) |
| < 5 | N#Cc1cncc(COc2cc(O[C@H]3CCc4c(-c5cccc(OCCCN6CC7(CC(O)C7)C6)c5Cl)cccc43)c(Cl)cc2CN[C@@H]2CCCC[C@@H]2O)c1 |
| < 5 | Cc1c(OCCCN2CCC(O)CC2)cccc1-c1cccc2c1CC[C@@H]2Oc1cc(OCc2cncc(C#N)c2)c(CN[C@@H]2CCC[C@H]2O)cc1Cl |
| < 5 | N#Cc1cncc(COc2cc(O[C@H]3CCc4c(-c5cccc(OCCCN6CCC(F)CC6)c5Cl)cccc43)c(Cl)cc2CN2CC3(C2)NC(=O)NC3=O)c1 |
| < 5 | N#Cc1cncc(COc2cc(O[C@H]3CCc4c(-c5cccc(OCCCN6CC(F)C6)c5Cl)cccc43)c(Cl)cc2CN[C@@H]2CCCC[C@@H]2O)c1 |
